Assay: molar heat capacity at constant pressure; xn = mol fraction of the nth substance listed
Settings: 100 kPa, Liquid, Small sample (50 mg) DSC, x2 = 0.33

OCCOCCOCCO [triethylene glycol] + C[N+](C)(C)CCO.[Cl-]
Settings	molar heat capacity at constant pressure [J/K/mol]
298.15 K	299
300.65 K	300.3
303.15 K	301.5
305.65 K	302.8
308.15 K	303.7
310.65 K	304.5
313.15 K	304.7
315.65 K	304.6
318.15 K	304.6
320.65 K	304.3
323.15 K	304.3
325.65 K	304.9
328.15 K	305.8
330.65 K	306.7
333.15 K	307.4
335.65 K	308.6
338.15 K	309.4
340.65 K	309.9
343.15 K	310
345.65 K	311.8
348.15 K	312.2
350.65 K	312.4
353.15 K	314.6

Source: the NIST ThermoML archive (doi:10.1021/acs.jced.5b00989)
